Test results: PubChem BioAssay AID330 (DTP/NCI, 2004)
Where “and” joins values, the source holds several entries; their conditions need not be identical. Identical values can stand only once. Inconclusive results and toxic doses are left out. Peptide text beside a SMILES is read from it. * marks the point of attachment. Propionyl = CCC(=O)*; Bn = c1ccc(C*)cc1

Tested on: P388 leukemia ip, CD2F1 mice, survival T/C
Assay: NCI In Vivo Anticancer Drug Screen. Data for tumor model P388 Leukemia (intraperitoneal) in CD2F1 (CDF1) mice
Settings: endpoint: median survival time, higher = longer survival
Procedure, shortened: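 Mice carrying the transplanted tumor received test compound or vehicle. Survival was recorded in each group, and the value is the treated-group measurement divided by that of the vehicle-treated control group.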

[1] = dose: 25.0 mg/kg/injection, schedule: Q01DX009 (ip), vehicle: saline with Tween-80
[2] = dose: 50.0 mg/kg/injection, schedule: Q01DX009 (ip), vehicle: saline with Tween-80
[3] = dose: 100.0 mg/kg/injection, schedule: Q01DX009 (ip), vehicle: saline with Tween-80
[4] = dose: 50.0 mg/kg/injection, schedule: Q01DX005 (ip), vehicle: Klucel (hydroxypropylcellulose) (HPC)
[5] = dose: 100.0 mg/kg/injection, schedule: Q01DX005 (ip), vehicle: Klucel (hydroxypropylcellulose) (HPC)
[6] = dose: 200.0 mg/kg/injection, schedule: Q01DX005 (ip), vehicle: Klucel (hydroxypropylcellulose) (HPC)
[7] = dose: 100.0 mg/kg/injection, schedule: Q04DX003 (ip), vehicle: saline with Tween-80
[8] = dose: 200.0 mg/kg/injection, schedule: Q04DX003 (ip), vehicle: saline with Tween-80
[9] = dose: 400.0 mg/kg/injection, schedule: Q04DX003 (ip), vehicle: saline with Tween-80
[10] = dose: 12.5 mg/kg/injection, schedule: Q01DX005 (ip), vehicle: Klucel (hydroxypropylcellulose) (HPC)
[11] = dose: 25.0 mg/kg/injection, schedule: Q01DX005 (ip), vehicle: Klucel (hydroxypropylcellulose) (HPC)
[12] = dose: 200.0 mg/kg/injection, schedule: Q01DX009 (ip), vehicle: saline with Tween-80
[13] = dose: 50.0 mg/kg/injection, schedule: Q04DX003 (ip), vehicle: saline with Tween-80
[14] = dose: 1.25 mg/kg/injection, schedule: Q01DX009 (ip), vehicle: saline
[15] = dose: 2.5 mg/kg/injection, schedule: Q01DX009 (ip), vehicle: saline

COC(=O)[C@@]12OC[C@]34C([C@@H](O)C1O)[C@@]1(C)CC(=O)C(O)=C(C)C1C[C@H]3OC(=O)[C@H](OC(=O)c1ccccc1Cl)[C@H]42 (some centres undefined)
T/C (dose: 0.25 mg/kg/injection, schedule: Q01DX005 (ip), vehicle: DMSO): 110 % of control
T/C (dose: 0.5 mg/kg/injection, schedule: Q01DX005 (ip), vehicle: DMSO): 110 % of control
T/C (dose: 1.0 mg/kg/injection, schedule: Q01DX005 (ip), vehicle: DMSO): 105 % of control and 97 % of control
T/C (dose: 2.0 mg/kg/injection, schedule: Q01DX005 (ip), vehicle: DMSO): 107 % of control and 112 % of control
T/C (dose: 4.0 mg/kg/injection, schedule: Q01DX005 (ip), vehicle: DMSO): 109 % of control
T/C (dose: 8.0 mg/kg/injection, schedule: Q01DX005 (ip), vehicle: DMSO): 101 % of control and 107 % of control
T/C (dose: 16.0 mg/kg/injection, schedule: Q01DX005 (ip), vehicle: DMSO): 108 % of control
T/C (dose: 32.0 mg/kg/injection, schedule: Q01DX005 (ip), vehicle: DMSO): 107 % of control

C#CCN(CC#C)S(=O)(=O)c1ccc(C)cc1
T/C (dose: 50.0 mg/kg/injection, schedule: Q01DX009 (ip), vehicle: saline): 104 % of control
T/C (dose: 100.0 mg/kg/injection, schedule: Q01DX009 (ip), vehicle: saline): 108 % of control
T/C (dose: 200.0 mg/kg/injection, schedule: Q01DX009 (ip), vehicle: saline): 108 % of control

C=C1C(=O)OC2/C=C(/C)C(OC(C)=O)CC(O)/C(C)=C\C(OC(=O)/C(C)=C\C)C12 (centres undefined)
T/C (dose: 12.5 mg/kg/injection, schedule: Q01DX009 (ip), vehicle: saline with Tween-80): 100 % of control
T/C [1]: 117 % of control
T/C [2]: 118 % of control
T/C [3]: 114 % of control

Cc1[nH]n(-c2cc(S(=O)(=O)O)ccc2Cl)c(=O)c1N=Nc1c(NC(=O)c2ccc(N)cc2)ccc2cc(S(=O)(=O)O)ccc12
T/C [4]: 96 % of control
T/C [5]: 105 % of control
T/C [6]: 115 % of control

N#Cc1cnn(-c2cc(Cl)c(Cl)cc2Cl)c1N
T/C [7]: 99 % of control
T/C [8]: 103 % of control
T/C [9]: 111 % of control

O=c1[nH]nc(SCc2ccc(Cl)cc2Cl)c(=O)[nH]1
T/C (dose: 6.25 mg/kg/injection, schedule: Q01DX005 (ip), vehicle: Klucel (hydroxypropylcellulose) (HPC)): 100 % of control
T/C [10]: 94 % of control
T/C [11]: 86 % of control

CC(Cl)C(=O)NN=C(c1ccccc1)c1ccccc1 (centres undefined)
T/C (dose: 42.0 mg/kg/injection, schedule: Q01DX009 (ip), vehicle: saline): 94 % of control
T/C (dose: 84.0 mg/kg/injection, schedule: Q01DX009 (ip), vehicle: saline): 90 % of control
T/C (dose: 168.0 mg/kg/injection, schedule: Q01DX009 (ip), vehicle: saline): 105 % of control

NC1(N)ON(c2ccc(C=O)cc2)C(c2ccc([N+](=O)[O-])cc2)S1 (centres undefined)
T/C [4]: 89 % of control
T/C [5]: 95 % of control
T/C [6]: 89 % of control

CC(=O)O[C@H]1/C=C(\C)[C@@H](O)C/C=C(\C)CC(OC(=O)c2ccccc2)[C@H]1C(C)C (some centres undefined)
T/C [10]: 98 % of control
T/C [11]: 98 % of control
T/C [4]: 100 % of control
T/C [5]: 95 % of control

CCOc1c(N=Nc2ccc(C)cc2)c(C)nn1C(=S)SC
T/C (dose: 60.0 mg/kg/injection, schedule: Q01DX005 (ip), vehicle: Klucel + Tween-80): 100 % of control
T/C (dose: 120.0 mg/kg/injection, schedule: Q01DX005 (ip), vehicle: Klucel + Tween-80): 94 % of control
T/C (dose: 240.0 mg/kg/injection, schedule: Q01DX005 (ip), vehicle: Klucel + Tween-80): 100 % of control

NC(CCl)=NCC12CC3CC(CC(C3)C1)C2
T/C (dose: 12.5 mg/kg/injection, schedule: Q01DX009 (ip), vehicle: Klucel (hydroxypropylcellulose) (HPC)): 90 % of control

O=Cc1ccc2nc(C(Cl)(Cl)Cl)ccc2c1
T/C [2]: 100 % of control
T/C [3]: 105 % of control
T/C [12]: 100 % of control

ClCc1ccc(Cl)c(Cl)c1Cl
T/C [1]: 100 % of control
T/C (dose: 25.0 mg/kg/injection, schedule: Q04DX003 (ip), vehicle: saline with Tween-80): 100 % of control
T/C [2]: 104 % of control
T/C [13]: 100 % of control
T/C [3]: 109 % of control
T/C [7]: 100 % of control

C=CCC1CCCCC1=O (centres undefined) (tested in a mixture with another compound)
T/C [2]: 105 % of control
T/C [3]: 104 % of control
T/C [12]: 115 % of control

S=c1ncc2[nH]cnc2[nH]1
T/C [4]: 99 % of control
T/C [5]: 105 % of control
T/C [6]: 105 % of control

CCC(=O)NC(CSCc1ccccc1)C(=O)NC(CCC(=O)OC)C(=O)OC (centres undefined) (Propionyl-Cys(Bn)-Glu(OMe)-OMe; configuration not given here)
T/C [2]: 110 % of control
T/C [3]: 100 % of control
T/C [12]: 97 % of control

CCOC1=C(N2CC2)C(=O)C(OCC)=C(N2CC2)C1=O
T/C [14]: 171 % of control
T/C [15]: 242 % of control

C=C(C)C1CCC2(C)C1CCC1(C)C2CCC2C3(C)C4OC(OC4=O)C(C)(C)C3CCC21C (centres undefined)
T/C (dose: 25.0 mg/kg/injection, schedule: Q01DX005 (ip), vehicle: DMSO): 98 % of control
T/C (dose: 50.0 mg/kg/injection, schedule: Q01DX005 (ip), vehicle: DMSO): 100 % of control
T/C (dose: 100.0 mg/kg/injection, schedule: Q01DX005 (ip), vehicle: DMSO): 100 % of control
T/C (dose: 200.0 mg/kg/injection, schedule: Q01DX005 (ip), vehicle: DMSO): 113 % of control
T/C (dose: 400.0 mg/kg/injection, schedule: Q01DX005 (ip), vehicle: DMSO): 108 % of control

CC(C)=CCC(OC(=O)C=C(C)C)c1cc(O)c2c(O)ccc(O)c2c1O.[O]=[V] (centres undefined)
T/C (dose: 100.0 mg/kg/injection, schedule: Q04DX002 (ip), vehicle: saline with Tween-80): 92 % of control
T/C (dose: 200.0 mg/kg/injection, schedule: Q04DX002 (ip), vehicle: saline with Tween-80): 92 % of control
T/C (dose: 400.0 mg/kg/injection, schedule: Q04DX002 (ip), vehicle: saline with Tween-80): 109 % of control

O=CC1C(=O)NC(=O)NC1=O
T/C (dose: 25.0 mg/kg/injection, schedule: Q04DX003 (ip), vehicle: saline): 112 % of control
T/C (dose: 50.0 mg/kg/injection, schedule: Q04DX003 (ip), vehicle: saline): 100 % of control
T/C (dose: 100.0 mg/kg/injection, schedule: Q04DX003 (ip), vehicle: saline): 114 % of control

CC(=O)C1CC2C=CC1N(C1=CC(=O)CC(C)(C)C1)C2=O (centres undefined)
T/C [2]: 108 % of control
T/C [3]: 107 % of control
T/C [12]: 100 % of control

CC(C)c1cccc(C(C)C)c1Oc1ccc([N+](=O)[O-])cc1[N+](=O)[O-]
T/C [13]: 94 % of control
T/C [7]: 93 % of control
T/C [8]: 92 % of control
T/C [9]: 90 % of control

Cc1ccc(NC(=S)SCc2ccc(Cl)cc2)cc1C
T/C (dose: 50.0 mg/kg/injection, schedule: Q01DX009 (ip), vehicle: suspension in saline): 101 % of control
T/C (dose: 100.0 mg/kg/injection, schedule: Q01DX009 (ip), vehicle: suspension in saline): 107 % of control
T/C (dose: 200.0 mg/kg/injection, schedule: Q01DX009 (ip), vehicle: suspension in saline): 97 % of control

O=c1[nH]ccc2nc(-c3ccccc3)cn12
T/C (dose: 100.0 mg/kg/injection, schedule: Q04DX003 (ip), vehicle: Klucel (hydroxypropylcellulose) (HPC)): 106 % of control
T/C (dose: 200.0 mg/kg/injection, schedule: Q04DX003 (ip), vehicle: Klucel (hydroxypropylcellulose) (HPC)): 104 % of control
T/C (dose: 400.0 mg/kg/injection, schedule: Q04DX003 (ip), vehicle: Klucel (hydroxypropylcellulose) (HPC)): 105 % of control

CCCN1CC=CCC1
T/C (dose: 60.0 mg/kg/injection, schedule: Q01DX005 (ip), vehicle: saline): 100 % of control
T/C (dose: 120.0 mg/kg/injection, schedule: Q01DX005 (ip), vehicle: saline): 100 % of control
T/C (dose: 240.0 mg/kg/injection, schedule: Q01DX005 (ip), vehicle: saline): 100 % of control

O=C(N=c1nc2ccccn2s1)c1ccccc1
T/C [2]: 100 % of control
T/C [3]: 98 % of control
T/C [12]: 104 % of control

Nc1ccc(N(CCCl)CCN(CCCl)c2ccc(N)cc2)cc1
T/C (dose: 0.8 mg/kg/injection, schedule: Q01DX009 (ip), vehicle: saline sonified): 176 % of control
T/C (dose: 1.2 mg/kg/injection, schedule: Q01DX009 (ip), vehicle: saline sonified): 209 % of control
T/C [14]: 177 % of control
T/C [15]: 122 % of control
T/C (dose: 5.0 mg/kg/injection, schedule: Q01DX009 (ip), vehicle: saline): 90 % of control
T/C (dose: 5.0 mg/kg/injection, schedule: Q04DX003 (ip), vehicle: saline with Tween-80): 118 % of control
